The test system of data set [1] is mouse hepatic organoids. The data set can be described thus: Organoid uptake assay and fluorescence imaging. It counts as cell-based. The settings on record: 1 h at 37 °C. As to the method:
For blocking, the experiment was conducted in presence of 10 mM GalNAc. At the end of the incubation time, cells were put on ice for 1 min and spun down (300 rcf, 5 min, 4 °C). The supernatant was carefully removed and organoids were washed twice with 200 µL of ice-cold PBS. Internalized activity was released by treating the organoids with 200 µL of 1 M NaOH for 10 min. Lysates were transferred into scintillation vials and the activity content was measured in a γ-counter. Organoid uptake was determined as the percentage of total radioactivity added.
For microscopic studies organoids were incubated with 333 nM BP-Fluor-647-TriGalactan for 1 h at 37 °C. Cells were pelleted, washed once with PBS and fixated by addition of 200 µL of fixation buffer (BD Cytofix/Cytoperm™, Fisher Scientific, Hampton, USA). After 1 h at room temperature, cells were washed again with PBS and incubated in 100 µL of perm/wash-buffer (Biozym, Hessisch Oldendorf, Germany) for another 30 min. For counter staining organoids were incubated over night at 4 °C with 30 µL of a mixture of 2 µM Hoechst 33,342 (Thermo Scientific), 165 nM Phalloidin CruzFluor™ 555 (Santa Cruz, Dallas, Texas, USA) and Anti-ASGR1 AF488-coupled antibody (2 µg/mL, Bio-Techne, Dublin, Ireland). The next day, organoids were centrifuged, washed three times with PBS and transferred to a CellCarrier-96 Ultra Microplate (PerkinElmer). The Operetta CLS system (revvity, Hamburg, Germany) was used to image the samples. Analysis was performed using the Harmony software 4.9.
Mouse hepatic organoids (Stemcell Technologies, Vancouver, Canada) were cultivated in HepatiCult® organoid growth medium supplemented with 1 % Penicillin/Streptomycin + l-Glutamine (Thermofisher Scientific, Waltham, Massachussetts, USA) embedded in a Geltrex^TM (Thermofisher Scientific) LDEV-free reduced growth factor basement membrane matrix. Medium was replaced every 3-4 days and organoids were passaged every 7-10 days. For passaging, matrix domes were mechanically disrupted and the cell suspension was transferred into a 15 mL falcon tube. […]

Data set [2] concerns the target T1, asialoglycoprotein receptor (ASGR) (Mus musculus, UniProt P24721+P34927).
T1 construct: endogenous in cells; host or cells: primary hepatocytes freshly isolated from C57BL/6 mice (collagenase perfusion)
T1 sequence (P34927 1-284): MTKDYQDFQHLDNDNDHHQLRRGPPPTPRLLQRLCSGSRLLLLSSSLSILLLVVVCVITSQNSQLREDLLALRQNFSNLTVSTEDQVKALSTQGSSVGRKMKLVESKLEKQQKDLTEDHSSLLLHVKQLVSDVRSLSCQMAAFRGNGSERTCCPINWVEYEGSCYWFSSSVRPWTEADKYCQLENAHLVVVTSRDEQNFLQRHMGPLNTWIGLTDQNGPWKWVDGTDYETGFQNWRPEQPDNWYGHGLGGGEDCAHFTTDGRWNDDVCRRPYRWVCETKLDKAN
T1 sequence (P24721 1-301): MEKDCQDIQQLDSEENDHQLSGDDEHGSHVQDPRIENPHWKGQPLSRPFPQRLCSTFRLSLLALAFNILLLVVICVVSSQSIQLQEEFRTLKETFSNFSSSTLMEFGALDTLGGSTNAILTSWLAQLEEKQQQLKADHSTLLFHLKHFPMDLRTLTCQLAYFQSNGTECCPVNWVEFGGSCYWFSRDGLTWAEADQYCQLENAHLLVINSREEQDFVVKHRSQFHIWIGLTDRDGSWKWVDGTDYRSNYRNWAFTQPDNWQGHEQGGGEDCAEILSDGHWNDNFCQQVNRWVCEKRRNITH
Put plainly: Competitive binding against [^125I]I-asialoorosomucoid on freshly isolated mouse hepatocytes. The settings on record: [^125I]I-asialoorosomucoid 5 nM, 1 hour on ice.
Procedure: Inhibitory constant (IC50) values were determined in triplicates using freshly isolated mouse hepatocytes (Seglen [1976]). […] In brief, cells were incubated in presence of [^125I]I-asialoorosomucoid (5 nM) with various ligand concentrations ranging from 10^− 5-10^− 11 M for 1 hour on ice. Cells were washed and cell bound activity was released by addition of 200 µL 1 M NaOH for 10 min. The activity content in the lysates was quantified in a γ-counter (2480 Wizard^2 3”, PerkinElmer, Waltham, Massachussetts, USA) and the values were plotted in excel. Fitting of the sigmoidal binding curve and the calculation of the IC50 value was done with excel’s solver plugin.
Binding to the ASGR was quantified in an assay with freshly isolated mouse hepatocytes using the ^natGa-complex of NODAGA-TriGalactan. Hepatocytes were seeded in a 24-well plate and competitive binding against [^125I]I-asialorosomucoid (ASOR) was studied. For comparison, the affinity of GSA for the receptor was also determined.
Isolation of murine hepatocytes followed the collagenase perfusion method published by Seglen [4]. Therefore, C57BL/6 mice were euthanized by cervical dislocation and subsequently the peritoneum was opened. […] Hepatocytes were resuspended in 20 – 30 mL of William’s E + Glutamaxx + 10 % FCS + 1 % Penicillin/Streptomycin (Gibco, Thermofisher Scientific) and counted, typically yielding 30 – 40 × 10^6 cells/animal. […]

Data set [3] is described as follows: Stability in human blood serum. It counts as in vitro ADME. The note with it: for Serum stability: human blood serum. As to the method: (§1) A detailed synthetic procedure for preparation of NODAGA-TriGalactan including analytical data as well as a complete list of all reagents can be found in the supplementary information. Protocols for determination of logD, protein binding and stability studies have been described elsewhere (Hörmann et al. [2020]).
(§2) Binding to the ASGR was quantified in an assay with freshly isolated mouse hepatocytes using the ^natGa-complex of NODAGA-TriGalactan. Hepatocytes were seeded in a 24-well plate and competitive binding against [^125I]I-asialorosomucoid (ASOR) was studied.

Data set [4] in a line: Stability in PBS. The data set is classed as physicochemical. As to the method:
as §1, §2

Data set [5] relates to plasma protein. The data set can be described thus: Protein binding. It counts as in vitro ADME. As to the method:
as §1, §2

Data set [6] in a line: Biodistribution studies in healthy BALB/c mice. It counts as in vivo.
Procedure: For biodistribution studies 6 week old female BALB/c mice (n = 3, Charles Rivers Laboratories, Sulzfeld, Germany) were injected with 0.1 nmol (100 µL, approx. 1 MBq) of ^68Ga-labelled compound via the lateral tail vein and sacrificed by cervical dislocation 10, 30, or 60 min post injection (p.i.). The mice were dissected, blood and organs were weighed and the activity of the samples measured in a γ-counter. For blocking experiments, mice were co-injected with 27.7 µmol of D-galactose.
Data set [7] can be described thus: Small animal dynamic PET/MR imaging, time activity curves. It counts as in vivo. The note with it: C57BL/6J mice. As to the method:
All animal experiments were performed according to the German animal welfare act and approved by the local authorities (R5/19). Male C57BL/6J mice were purchased from Janvier Lab (Saint-Berthevin Cedex, France) at 6 weeks. Mice were kept under 1.5% isoflurane in oxygen during the measurements (n = 3). Approximately 1 MBq of the radiotracer was injected intravenously per mouse and 1 h dynamic PET was performed with an Inveon microPET system (Inveon D-PET, Siemens, Knoxville, TN, USA). Mice were then transferred to a 7 Tesla BioSpec 70/30 USR (Bruker Biospin MRI GmbH, Ettlingen, Germany) and a 15 min MR anatomical scan using T2-weighted 3-dimensional turbo spin-echo sequence was acquired. An Inveon Acquisition Workplace was used to reconstruct the acquired images using ordered subset expectation maximization 3D (OSEM 3D) and framing the dynamics. The reconstructed image analysis was performed by using an Inveon Research Workplace. After co-registering acquired MR images with PET images, regions of interest (ROIs) were drawn on liver, heart, muscle, and kidney and time activity curves (TACs) were quantified.

Where [8] appears, read: 30 min p.i., blocking with 27.7 µmol D-galactose.

SMILES strings stand for the structures. “And” between values parts separate entries of the source, which are not always exact repeats. Equal values may be shown once.

As for `CC1(CCCCCC(=O)NCCCC(=O)NC(COCc2cn(CCOCCOCCO[C@@H]3O[C@H](CO)[C@H](O)[C@H](O)[C@H]3O)nn2)(COCc2cn(CCOCCOCCO[C@@H]3O[C@H](CO)[C@H](O)[C@H](O)[C@H]3O)nn2)COCc2cn(CCOCCOCCO[C@@H]3O[C@H](CO)[C@H](O)[C@H](O)[C@H]3O)nn2)C(/C=C/C=C/C=C2/N(CCCS(=O)(=O)O)c3ccc(S(=O)(=O)O)cc3C2(C)C)=[N+](CCCS(=O)(=O)[O-])c2ccc(S(=O)(=O)O)cc21` (stereo partly drawn) [BP-Fluor-647-TriGalactan], the “Fluorescence imaging of mouse hepatic organoids” value in data set [1] (333 nM, co-staining with anti-ASGR antibody) was “internalization of the trimer into the organoids”.
What is called IC50 is the concentration at which inhibition is half-maximal. On to `O=C([O-])CN1CCN(CC(=O)[O-])CCN([C@H](CCC(=O)NCCCC(=O)NC(COCc2cn(CCOCCOCCO[C@@H]3O[C@H](CO)[C@H](O)[C@H](O)[C@H]3O)nn2)(COCc2cn(CCOCCOCCO[C@@H]3O[C@H](CO)[C@H](O)[C@H](O)[C@H]3O)nn2)COCc2cn(CCOCCOCCO[C@@H]3O[C@H](CO)[C@H](O)[C@H](O)[C@H]3O)nn2)C(=O)[O-])CC1.[Ga+3]` [[^natGa]Ga-NODAGA-TriGalactan], for which, in data set [2], the IC50 was determined as 73.2 ± 67.5 nM.
In the case of `O=C([O-])CN1CCN(CC(=O)[O-])CCN([C@H](CCC(=O)NCCCC(=O)NC(COCc2cn(CCOCCOCCO[C@@H]3O[C@H](CO)[C@H](O)[C@H](O)[C@H]3O)nn2)(COCc2cn(CCOCCOCCO[C@@H]3O[C@H](CO)[C@H](O)[C@H](O)[C@H]3O)nn2)COCc2cn(CCOCCOCCO[C@@H]3O[C@H](CO)[C@H](O)[C@H](O)[C@H]3O)nn2)C(=O)[O-])CC1.[68Ga+3]` [[^68Ga]Ga-NODAGA-TriGalactan], the Serum stability was determined as 99.8 ± 0% in data set [3] (2 min), 97.6 ± 2.3% in data set [3] (30 min), 98.5 ± 1.2% in data set [3] (60 min) and 92.9 ± 4.6% in data set [3] (120 min). In data set [3] (over the time course of 2 h), the “stability in human blood serum (intact tracer)” value is listed as over 93%. The PBS stability in data set [4] (2 min), in data set [4] (30 min), in data set [4] (60 min) and in data set [4] (120 min) was 99.8% in each case. In addition, the “stability in PBS (intact tracer)” value in data set [4] (over the time course of 2 h) is over 99%. For the same compound, the Protein binding was 7.6 ± 3.9% in data set [5] (2 min of incubation), 5.5 ± 0.5% in data set [5] (30 min of incubation), 9.2 ± 0.2% in data set [5] (60 min of incubation) and 13.6 ± 3.2% in data set [5] (120 min of incubation). Moreover, the “Cellular uptake on mouse hepatic organoids” value in data set [1] (0.3 nM tracer) was “decent degree of internalization”. For the same compound, the “Cellular uptake with blocking on mouse hepatic organoids” value in data set [1] (in presence of 10 mM GalNAc, p < 0.05) is listed as “receptor specific interaction with the ASGR”. In addition, the “Biodistribution Blood” value is 3.3 ± 0.2 % ID/g in data set [6] (10 min p.i.); 0.89 ± 0.09 % ID/g in data set [6] (30 min p.i.); 1.19 ± 0.33 % ID/g in data set [6] (setting [8]); 0.3 ± 0.04 % ID/g and 0.34 ± 0.04 % ID/g in data set [6] (60 min p.i.). The “Biodistribution Femur” value in data set [6] (10 min p.i.) is on record as 0.87 ± 0.52 % ID/g; in data set [6] (30 min p.i.), 0.22 ± 0.02 % ID/g; in data set [6] (setting [8]), 0.37 ± 0.16 % ID/g; in data set [6] (60 min p.i.), 0.26 ± 0.19 % ID/g. For the same compound, the “Biodistribution Intestine” value is 1.13 ± 0.07 % ID/g in data set [6] (10 min p.i.); 1.95 ± 0.17 % ID/g in data set [6] (30 min p.i.); 0.77 ± 0.19 % ID/g in data set [6] (setting [8]); 3.0 ± 0.4 % ID/g and 2.99 ± 0.43 % ID/g in data set [6] (60 min p.i.). In addition, the “Biodistribution Kidneys” value in data set [6] (10 min p.i.) is 8.2 ± 0.5 % ID/g and 8.15 ± 0.54 % ID/g; in data set [6] (30 min p.i.), 2.83 ± 0.18 % ID/g; in data set [6] (setting [8]), 4.19 ± 0.29 % ID/g; in data set [6] (60 min p.i.) it was 1.51 ± 0.10 % ID/g. The “Biodistribution Liver” value in data set [6] (10 min p.i.) stood at 33.4 ± 0.9 % ID/g; in data set [6] (30 min p.i.), 32.2 ± 3.7 % ID/g; in data set [6] (setting [8]), 14.6 ± 0.15 % ID/g; in data set [6] (60 min p.i.), 27.7 ± 3.1 % ID/g. Also, the “Biodistribution Lung” value in data set [6] (10 min p.i.) amounted to 2.14 ± 0.13 % ID/g; in data set [6] (30 min p.i.) it was 0.74 ± 0.03 % ID/g; in data set [6] (setting [8]) it was 0.97 ± 0.04 % ID/g; in data set [6] (60 min p.i.), 0.38 ± 0.10 % ID/g. Moreover, the “Biodistribution Muscle” value in data set [6] (10 min p.i.) was 0.77 ± 0.02 % ID/g; in data set [6] (30 min p.i.), 0.23 ± 0.03 % ID/g; in data set [6] (setting [8]), 0.43 ± 0.20 % ID/g; in data set [6] (60 min p.i.), 0.17 ± 0.02 % ID/g. The “Biodistribution Pancreas” value in data set [6] (10 min p.i.) is recorded as 0.87 ± 0.12 % ID/g; in data set [6] (30 min p.i.), 0.31 ± 0.05 % ID/g; in data set [6] (setting [8]), 0.45 ± 0.01 % ID/g; in data set [6] (60 min p.i.) it was 0.19 ± 0.09 % ID/g. Also, the “Biodistribution Spleen” value stood at 0.78 ± 0.05 % ID/g in data set [6] (10 min p.i.), 0.27 ± 0.02 % ID/g in data set [6] (30 min p.i.), 0.32 ± 0.03 % ID/g in data set [6] (setting [8]) and 0.16 ± 0.02 % ID/g in data set [6] (60 min p.i.). Moreover, the “Biodistribution Heart” value in data set [6] (30 min p.i.) turned out to be 0.40 ± 0.03 % ID/g; in data set [6] (setting [8]), 0.44 ± 0.03 % ID/g; in data set [6] (60 min p.i.), 0.17 ± 0.00 % ID/g. Also, the results for the “Biodistribution Stomach” value in data set [6] (30 min p.i.), in data set [6] (setting [8]) and in data set [6] (60 min p.i.) were 1.05 ± 0.08 % ID/g, 0.68 ± 0.11 % ID/g and 0.92 ± 0.04 % ID/g, respectively. In addition, in data set [7], the “Time of kidney activity peak, PET TAC” value is on record as about 1.5 min. Also, the “Background muscle uptake, PET TAC” value in data set [7] (1 h dynamic PET) was “less than 3 % ID/mL”. Further, in data set [7] (within the first three minutes), the “Activity in the blood (measured in the heart), PET TAC” value is on record as “below 5 % ID/mL”.

The values are drawn from PMC11096148 (EJNMMI Radiopharmacy and Chemistry, 2024).
